Test results reported in patent publication US20250154144A1 (CHILDREN'S HOSPITAL MEDICAL CENTER, priority 2021, published 2025).
Like-named read-outs stand apart in the source and are kept apart here.

Experiments:
IRAK4 = molecular target: T1, IRAK4 (Homo sapiens, UniProt Q9NWZ3); test: RBC HotSpot Kinase Assay, IRAK4
T1 sequence (Q9NWZ3 1-460): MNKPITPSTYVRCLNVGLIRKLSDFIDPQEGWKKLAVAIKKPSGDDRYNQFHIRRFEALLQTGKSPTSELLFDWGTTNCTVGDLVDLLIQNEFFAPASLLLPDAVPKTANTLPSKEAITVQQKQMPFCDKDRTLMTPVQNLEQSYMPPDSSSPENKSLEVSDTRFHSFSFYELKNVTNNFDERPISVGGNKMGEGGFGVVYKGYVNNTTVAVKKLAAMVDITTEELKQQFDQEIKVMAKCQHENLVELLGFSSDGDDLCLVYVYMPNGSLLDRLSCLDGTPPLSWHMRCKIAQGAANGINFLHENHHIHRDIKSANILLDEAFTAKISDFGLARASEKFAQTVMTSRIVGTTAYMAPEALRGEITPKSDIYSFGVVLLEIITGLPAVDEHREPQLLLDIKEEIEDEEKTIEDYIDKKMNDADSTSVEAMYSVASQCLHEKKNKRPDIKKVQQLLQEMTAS

FLT3 = molecular target: T2, FLT3 (Homo sapiens, UniProt P36888); test: RBC HotSpot Kinase Assay, FLT3
T2 sequence (P36888 610-943 limits assumed): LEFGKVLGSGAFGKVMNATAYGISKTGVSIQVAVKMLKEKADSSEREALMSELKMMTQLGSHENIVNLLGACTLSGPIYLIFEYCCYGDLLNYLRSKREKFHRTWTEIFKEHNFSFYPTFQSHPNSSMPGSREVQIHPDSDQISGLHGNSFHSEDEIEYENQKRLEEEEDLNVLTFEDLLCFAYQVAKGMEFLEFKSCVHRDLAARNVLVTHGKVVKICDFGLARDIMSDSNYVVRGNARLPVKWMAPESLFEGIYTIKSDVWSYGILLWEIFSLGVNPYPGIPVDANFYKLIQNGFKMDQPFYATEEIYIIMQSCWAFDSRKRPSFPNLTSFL

IRAK1 = IRAK1 (Homo sapiens, UniProt P51617); test: RBC HotSpot Kinase Assay, IRAK1
IRAK1, sequence (P51617 whole entry): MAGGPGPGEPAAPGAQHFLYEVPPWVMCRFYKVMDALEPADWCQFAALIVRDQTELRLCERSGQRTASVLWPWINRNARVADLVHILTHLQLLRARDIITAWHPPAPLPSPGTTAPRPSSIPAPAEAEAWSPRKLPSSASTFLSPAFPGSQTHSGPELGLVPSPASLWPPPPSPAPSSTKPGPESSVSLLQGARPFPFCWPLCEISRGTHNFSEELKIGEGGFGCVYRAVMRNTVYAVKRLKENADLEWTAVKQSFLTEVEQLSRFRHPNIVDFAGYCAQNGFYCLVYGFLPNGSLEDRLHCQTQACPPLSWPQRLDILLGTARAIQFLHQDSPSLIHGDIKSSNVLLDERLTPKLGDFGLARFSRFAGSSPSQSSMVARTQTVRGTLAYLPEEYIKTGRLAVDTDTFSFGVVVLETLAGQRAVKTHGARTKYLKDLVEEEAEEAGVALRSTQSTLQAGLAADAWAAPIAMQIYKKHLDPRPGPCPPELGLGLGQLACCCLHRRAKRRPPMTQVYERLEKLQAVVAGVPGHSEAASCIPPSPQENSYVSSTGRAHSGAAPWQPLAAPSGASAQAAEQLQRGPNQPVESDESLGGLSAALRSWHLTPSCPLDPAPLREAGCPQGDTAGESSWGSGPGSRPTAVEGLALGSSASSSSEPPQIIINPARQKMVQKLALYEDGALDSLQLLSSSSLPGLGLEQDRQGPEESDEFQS

THP1 cells = test: Combination drug screening, Cell Titer Glo, 10 × 10 matrix, THP1 cells; format: cell-based; conditions: THP1 cells; for Excess HSA Score: 10 × 10
MOLM14(D835Y) cells = format: cell-based; conditions: MOLM14(D835Y) cells; for Excess HSA Score: 10 × 10
[1] = combination with (+)-BAY-1251152
[2] = combination with Eprenetapopt/APR-246
[3] = combination with Venetoclax (ABT-199)

COc1cc2ncc(-c3ccnc(N[C@H]4CNC[C@@H]4F)n3)n2cc1C(C)(O)C(F)(F)F (single isomer, unassigned) [Compound 55]
IC50 (IRAK4; IRAK4 IC50): < 0.5 nM
IC50 (FLT3; FLT3 IC50): < 0.5 nM
IC50 (IRAK1; IRAK1 IC50): < 0.5 nM

COc1cc2ncc(-c3ccnc(N[C@H]4CNC[C@@H]4F)n3)n2cc1C(C)(O)C(F)(F)F (single isomer, unassigned) [Compound 56]
IC50 (IRAK4; read-out: IRAK4 IC50): < 0.5 nM
IC50 (FLT3; read-out: FLT3 IC50): < 0.5 nM
IC50 (IRAK1; read-out: IRAK1 IC50): < 0.5 nM

COc1cc2ncc(-c3ccnc(N[C@@H]4CCCNC4)n3)n2cc1C(C)(O)C(F)(F)F (single isomer, unassigned) [Compound 57]
IC50 (IRAK4; IRAK4 IC50): < 0.5 nM
IC50 (FLT3; FLT3 IC50): < 0.5 nM
IC50 (IRAK1; IRAK1 IC50): < 0.5 nM

CC(O)(c1cn2c(-c3ccnc(N[C@H]4CNCC[C@@H]4F)n3)cnc2cn1)C(F)(F)F (single isomer, unassigned) [Compound 58]
IC50 (IRAK4; IRAK4 IC50): < 0.5 nM
IC50 (FLT3; FLT3 IC50): < 0.5 nM
IC50 (IRAK1; IRAK1 IC50): 0.6 nM

COc1cc2ncc(-c3ccnc(N[C@@H]4CCCNC4)n3)n2cc1C(C)(O)C(F)(F)F (single isomer, unassigned) [Compound 59]
IC50 (IRAK4; read-out: IRAK4 IC50): < 0.5 nM
IC50 (FLT3; read-out: FLT3 IC50): < 0.5 nM
IC50 (IRAK1; read-out: IRAK1 IC50): < 0.5 nM
Excess HSA Score (THP1 cells; [1]): −945.9
Excess HSA Score (THP1 cells; combination with AMG-232): 249.9
Excess HSA Score (THP1 cells; combination with AZD-5363): −164.6
Excess HSA Score (THP1 cells; [2]): 269.2
Excess HSA Score (THP1 cells; combination with Ivosidenib): 205.2
Excess HSA Score (THP1 cells; combination with Lenalidomide): 30.374
Excess HSA Score (THP1 cells; combination with Palbociclib): −620.1
Excess HSA Score (THP1 cells; combination with Prednisolone): 486.6
Excess HSA Score (THP1 cells; combination with SNDX-5613): 68.13
Excess HSA Score (THP1 cells; combination with TNO-155): 213.8
Excess HSA Score (THP1 cells; combination with Trametinib): −374.5
Excess HSA Score (THP1 cells; combination with Ulixertinib): 164.2711
Excess HSA Score (THP1 cells; [3]): −1422
Comments (THP1 cells; combination with Lenalidomide): Antagonistic
Comments (THP1 cells; [3]): Synergistic
Excess HSA Score (MOLM14(D835Y) cells; [1]): −448.2
Excess HSA Score (MOLM14(D835Y) cells; combination with AMG-232): −416.2
Excess HSA Score (MOLM14(D835Y) cells; combination with AZD-5363): −316.4244
Excess HSA Score (MOLM14(D835Y) cells; [2]): −22.76
Excess HSA Score (MOLM14(D835Y) cells; combination with Ivosidenib): 107.6
Excess HSA Score (MOLM14(D835Y) cells; combination with Lenalidomide): 395.8
Excess HSA Score (MOLM14(D835Y) cells; combination with Palbociclib): −185.3
Excess HSA Score (MOLM14(D835Y) cells; combination with Prednisolone): 66.52
Excess HSA Score (MOLM14(D835Y) cells; combination with SNDX-5613): 130.9
Excess HSA Score (MOLM14(D835Y) cells; combination with TNO-155): −722.6
Excess HSA Score (MOLM14(D835Y) cells; combination with Trametinib): −383
Excess HSA Score (MOLM14(D835Y) cells; combination with Ulixertinib): −473
Excess HSA Score (MOLM14(D835Y) cells; [3]): −1215
Comments (MOLM14(D835Y) cells; combination with Prednisolone): Antagonistic
Comments (MOLM14(D835Y) cells; [3]): Synergistic

COc1cc2ncc(-c3cncc(N[C@H]4CNC[C@@H]4F)n3)n2cc1C(C)(O)C(F)(F)F (single isomer, unassigned) [Compound 61]
IC50 (IRAK4; IRAK4 IC50): < 0.5 nM
IC50 (FLT3; FLT3 IC50): < 0.5 nM
IC50 (IRAK1; IRAK1 IC50): < 0.5 nM

COc1cc2ncc(-c3cncc(N[C@H]4CNC[C@@H]4F)n3)n2cc1C(C)(O)C(F)(F)F (single isomer, unassigned) [Compound 62]
IC50 (IRAK4; read-out: IRAK4 IC50): < 0.5 nM
IC50 (FLT3; read-out: FLT3 IC50): < 0.5 nM
IC50 (IRAK1; IRAK1 IC50): 2 nM

COc1cc2ncc(-c3cncc(N[C@@H]4CCCNC4)n3)n2cc1C(C)(O)C(F)(F)F (single isomer, unassigned) [Compound 63]
IC50 (IRAK4; IRAK4 IC50): 0.7 nM
IC50 (FLT3; FLT3 IC50): < 0.5 nM
IC50 (IRAK1; IRAK1 IC50): 2 nM

COc1cc2ncc(-c3cncc(N[C@@H]4CCCNC4)n3)n2cc1C(C)(O)C(F)(F)F (single isomer, unassigned) [Compound 64]
IC50 (IRAK4; IRAK4 IC50): < 0.5 nM
IC50 (FLT3; read-out: FLT3 IC50): < 0.5 nM
IC50 (IRAK1; IRAK1 IC50): 1 nM

COc1cc2ncc(-c3cncc(N[C@H]4CNCC[C@@H]4F)n3)n2cc1C(C)(O)C(F)(F)F (single isomer, unassigned) [Compound 65]
IC50 (IRAK4; IRAK4 IC50): < 0.5 nM
IC50 (FLT3; FLT3 IC50): < 0.5 nM
IC50 (IRAK1; IRAK1 IC50): < 0.5 nM

COc1cc2ncc(-c3cncc(N[C@H]4CNCC[C@@H]4F)n3)n2cc1C(C)(O)C(F)(F)F (single isomer, unassigned) [Compound 66]
IC50 (IRAK4; read-out: IRAK4 IC50): < 0.5 nM
IC50 (FLT3; read-out: FLT3 IC50): < 0.5 nM
IC50 (IRAK1; read-out: IRAK1 IC50): < 0.5 nM

COc1cc2ncc(-c3cncc(N[C@H]4CNCC[C@@H]4F)n3)n2nc1C(C)(O)C(F)(F)F (single isomer, unassigned) [Compound 79]
IC50 (IRAK4; IRAK4 IC50): 367 nM
IC50 (FLT3; FLT3 IC50): 6 nM
IC50 (IRAK1; IRAK1 IC50): 1020 nM

COc1cc2ncc(-c3cncc(N[C@H]4CNCC[C@@H]4F)n3)n2nc1C(C)(O)C(F)(F)F (single isomer, unassigned) [Compound 80]
IC50 (IRAK4; IRAK4 IC50): 406 nM
IC50 (FLT3; FLT3 IC50): < 0.5 nM
IC50 (IRAK1; IRAK1 IC50): 1120 nM

COc1cc2ncc(-c3cncc(N[C@H]4CNC[C@@H]4F)n3)n2nc1C(C)(O)C(F)(F)F (single isomer, unassigned) [Compound 81]
IC50 (IRAK4; IRAK4 IC50): 2540 nM
IC50 (FLT3; FLT3 IC50): 8 nM
IC50 (IRAK1; IRAK1 IC50): 7900 nM

COc1cc2ncc(-c3cncc(N[C@@H]4CCCNC4)n3)n2nc1C(C)(O)C(F)(F)F (single isomer, unassigned) [Compound 82]
IC50 (IRAK4; IRAK4 IC50): 2040 nM
IC50 (FLT3; FLT3 IC50): 67 nM
IC50 (IRAK1; IRAK1 IC50): 5440 nM

COc1cc2ncc(-c3cncc(N[C@H]4CNC[C@@H]4F)n3)n2nc1C(C)(O)C(F)(F)F (single isomer, unassigned) [Compound 83]
IC50 (IRAK4; IRAK4 IC50): 544 nM
IC50 (FLT3; FLT3 IC50): 1 nM
IC50 (IRAK1; IRAK1 IC50): 4690 nM

COc1cc2ncc(-c3cncc(N[C@@H]4CCCNC4)n3)n2nc1C(C)(O)C(F)(F)F (single isomer, unassigned) [Compound 84]
IC50 (IRAK4; IRAK4 IC50): 512 nM
IC50 (FLT3; FLT3 IC50): 2 nM
IC50 (IRAK1; IRAK1 IC50): 3020 nM

CC(C)(O)c1ccc2ncc(-c3cncc(N[C@H]4CNC[C@@H]4F)n3)n2c1 [Compound 16, 2-(3-(6-(((3S,4S)-4-fluoropyrrolidin-3-yl)amino)pyrazin-2-yl)imidazo[1,2-a]pyridin-6-yl)propan-2-ol]
IC50 (IRAK4; IRAK4 IC50): 13 nM
IC50 (FLT3; FLT3 IC50): 5 nM
IC50 (IRAK1; IRAK1 IC50): 237 nM

CC(C)(O)c1ccc2ncc(-c3cncc(N[C@@H]4CCCNC4)n3)n2c1 [Compound 17, (R)-2-(3-(6-(piperidin-3-ylamino)pyrazin-2-yl)imidazo[1,2-a]pyridin-6-yl)propan-2-ol]
IC50 (IRAK4; IRAK4 IC50): 7 nM
IC50 (FLT3; FLT3 IC50): 5 nM
IC50 (IRAK1; IRAK1 IC50): 105 nM

COc1cc2ncc(-c3cncc(N[C@@H]4CCCNC4)n3)n2nc1C1CC1 [Compound 23, (R)-6-(6-cyclopropyl-7-methoxyimidazo[1,2-b]pyridazin-3-yl)-N-(piperidin-3-yl)pyrazin-2-amine]
IC50 (IRAK4; IRAK4 IC50): 1 nM
IC50 (FLT3; FLT3 IC50): < 0.5 nM
IC50 (IRAK1; IRAK1 IC50): 175 nM

F[C@H]1CNC[C@@H]1Nc1nccc(-c2cnc3cc(OC4CC4)ccn23)n1 [Compound 37, 4-(7-cyclopropoxyimidazo [1,2-a]pyridin-3-yl)-N-((3S,4S)-4-fluoropyrrolidin-3-yl)pyrimidin-2-amine]
IC50 (IRAK4; IRAK4 IC50): 1 nM
IC50 (FLT3; FLT3 IC50): < 0.5 nM
IC50 (IRAK1; IRAK1 IC50): 13 nM

CC(C)(O)c1ccc2ncc(-c3ccnc(N[C@H]4CNC[C@@H]4F)n3)n2c1 [Compound 40, 2-(3-(2-(((3S,4S)-4-fluoropyrrolidin-3-yl)amino)pyrimidin-4-yl)imidazo[1,2-a]pyridin-6-yl)propan-2-ol]
IC50 (IRAK4; IRAK4 IC50): 1 nM
IC50 (FLT3; FLT3 IC50): < 0.5 nM
IC50 (IRAK1; IRAK1 IC50): 79 nM

CC(C)(O)c1ccc2ncc(-c3ccnc(N[C@@H]4CCCNC4)n3)n2c1 [Compound 41, (R)-2-(3-(2-(piperidin-3-ylamino)pyrimidin-4-yl)imidazo[1,2-a]pyridin-6-yl)propan-2-ol]
IC50 (IRAK4; IRAK4 IC50): 8 nM
IC50 (FLT3; FLT3 IC50): 1 nM
IC50 (IRAK1; IRAK1 IC50): 124 nM

COc1cc2ncc(-c3ccnc(N[C@H]4CNCC[C@@H]4F)n3)n2cc1C(C)(O)C(F)(F)F (stereo partly drawn) [Compound 60]
IC50 (IRAK4; IRAK4 IC50): < 0.5 nM
IC50 (FLT3; FLT3 IC50): < 0.5 nM
IC50 (IRAK1; IRAK1 IC50): < 0.5 nM
